These results are taken from patent US20230295130A1, “COMPOUND USEFUL AS CDK7 KINASE INHIBITOR AND USE THEREOF” (TYK MEDICINES, INC., priority 2020, published 2023).

The term IC50 denotes the point on the concentration scale where inhibition reaches its midpoint.

Common to all, as to experiment: Enzyme activity test, mobility shift assay (Table 1)
Assay type in all cases: biochemical

For test [1], the target named is CDK12 (aa686-1082)/Cyclin K (Homo sapiens (Human), UniProt Q9NYV4). Particulars: 2 mM ATP; read-out: CDK12 kinase IC50. As to the method: The compound powder was dissolved in 100% DMSO to prepare a 10 mM storage solution. The storage solution was further diluted to 0.5 mM as the initial concentration, and continuously diluted 3 times to obtain 10 compound solutions with different concentrations. The compound and enzyme were pre-incubated for 0 minutes and 60 minutes, respectively, using duplicate detection. Compound Staurosporine having a structural formula of
Chain of CDK12 (aa686-1082)/Cyclin K (Q9NYV4 686-1082): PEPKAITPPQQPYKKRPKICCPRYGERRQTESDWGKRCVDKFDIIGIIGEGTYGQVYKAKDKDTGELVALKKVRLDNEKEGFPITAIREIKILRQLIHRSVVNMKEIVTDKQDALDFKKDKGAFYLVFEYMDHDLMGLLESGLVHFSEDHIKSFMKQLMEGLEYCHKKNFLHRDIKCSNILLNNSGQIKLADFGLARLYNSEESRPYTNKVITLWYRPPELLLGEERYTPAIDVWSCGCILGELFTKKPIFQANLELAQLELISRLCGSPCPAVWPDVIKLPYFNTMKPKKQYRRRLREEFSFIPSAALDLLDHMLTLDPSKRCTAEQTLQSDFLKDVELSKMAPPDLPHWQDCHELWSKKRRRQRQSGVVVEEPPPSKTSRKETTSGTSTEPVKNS
Chain of CDK12 (aa686-1082)/Cyclin K (O75909 whole entry partner, the tested form may be a part): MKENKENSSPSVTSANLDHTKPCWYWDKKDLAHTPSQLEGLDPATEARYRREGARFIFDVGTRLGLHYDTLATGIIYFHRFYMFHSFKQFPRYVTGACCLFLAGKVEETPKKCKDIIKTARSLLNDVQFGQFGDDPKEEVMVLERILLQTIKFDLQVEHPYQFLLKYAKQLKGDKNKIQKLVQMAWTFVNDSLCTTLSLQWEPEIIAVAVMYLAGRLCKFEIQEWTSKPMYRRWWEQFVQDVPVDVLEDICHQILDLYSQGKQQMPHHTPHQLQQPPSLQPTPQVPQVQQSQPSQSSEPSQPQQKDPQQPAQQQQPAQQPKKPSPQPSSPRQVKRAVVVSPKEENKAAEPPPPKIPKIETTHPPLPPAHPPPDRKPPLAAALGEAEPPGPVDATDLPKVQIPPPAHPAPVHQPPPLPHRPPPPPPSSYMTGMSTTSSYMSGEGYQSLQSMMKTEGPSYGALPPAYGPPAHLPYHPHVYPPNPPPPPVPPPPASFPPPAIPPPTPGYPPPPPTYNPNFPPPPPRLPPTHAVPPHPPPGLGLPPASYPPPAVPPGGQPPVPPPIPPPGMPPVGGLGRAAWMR
(§1) was used as a positive control, and Mobility shift assay method was used to detect CDK kinase (such as CDK7, CDK9, CDK12 and CDK2) activity of the compounds.

In a further test the target is CDK2/Cyclin El (Homo sapiens (Human), UniProt P24941). Particulars: 2 mM ATP; read-out: CDK2 kinase IC50. The protocol:
(§2) The compound powder was dissolved in 100% DMSO to prepare a 10 mM storage solution. The storage solution was further diluted to 0.5 mM as the initial concentration, and continuously diluted 3 times to obtain 10 compound solutions with different concentrations. The compound and enzyme were pre-incubated for 0 minutes and 60 minutes, respectively, using duplicate detection.
as §1

The target in the next test is CDK9/Cyclin Tl (Homo sapiens (Human), UniProt P50750). Particulars: 2 mM ATP; read-out: CDK9 kinase IC50. The protocol:
as §2, §1

The target in test [2] is CDK7/Cyclin H/MAT1 kinase (Homo sapiens (Human), UniProt P50613). To be noted: 2 mM ATP; pre-incubated 0 and 60 minutes. The protocol: IC50 values of the compounds for CDK7 kinase were detected in Wuxi Biortus Biosciences Co. Ltd.
Chain of CDK7/Cyclin H/MAT1 kinase (P50613 whole entry): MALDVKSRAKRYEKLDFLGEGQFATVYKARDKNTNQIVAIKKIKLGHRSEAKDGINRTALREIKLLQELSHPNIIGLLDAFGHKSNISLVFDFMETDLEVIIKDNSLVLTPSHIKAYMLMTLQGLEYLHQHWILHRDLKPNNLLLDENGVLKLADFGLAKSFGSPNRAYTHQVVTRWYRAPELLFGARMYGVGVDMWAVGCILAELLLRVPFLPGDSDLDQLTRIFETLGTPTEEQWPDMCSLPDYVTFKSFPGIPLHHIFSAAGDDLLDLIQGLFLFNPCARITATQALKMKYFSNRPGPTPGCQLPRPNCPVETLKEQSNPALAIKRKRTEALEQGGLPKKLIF
Chain of CDK7/Cyclin H/MAT1 kinase (P51946 whole entry partner): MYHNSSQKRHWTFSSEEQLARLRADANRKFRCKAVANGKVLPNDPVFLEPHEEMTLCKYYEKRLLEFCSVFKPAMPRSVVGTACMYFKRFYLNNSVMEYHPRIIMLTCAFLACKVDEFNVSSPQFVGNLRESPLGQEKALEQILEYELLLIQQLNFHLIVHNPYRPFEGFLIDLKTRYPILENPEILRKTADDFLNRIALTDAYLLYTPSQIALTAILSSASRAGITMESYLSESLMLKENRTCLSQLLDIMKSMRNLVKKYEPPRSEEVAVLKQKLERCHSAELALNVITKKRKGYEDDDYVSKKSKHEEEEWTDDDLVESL
Chain of CDK7/Cyclin H/MAT1 kinase (P51948 whole entry partner): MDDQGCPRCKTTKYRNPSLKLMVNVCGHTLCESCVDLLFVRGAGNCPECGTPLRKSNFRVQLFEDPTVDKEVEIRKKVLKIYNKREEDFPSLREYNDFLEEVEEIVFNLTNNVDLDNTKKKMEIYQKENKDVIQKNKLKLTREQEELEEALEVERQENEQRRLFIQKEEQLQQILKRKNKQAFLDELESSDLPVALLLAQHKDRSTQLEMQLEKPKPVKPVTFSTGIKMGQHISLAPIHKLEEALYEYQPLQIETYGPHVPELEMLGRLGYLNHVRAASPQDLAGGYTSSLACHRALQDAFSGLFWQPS
as §2, §1

Chain of CDK9/Cyclin Tl (P50750 whole entry): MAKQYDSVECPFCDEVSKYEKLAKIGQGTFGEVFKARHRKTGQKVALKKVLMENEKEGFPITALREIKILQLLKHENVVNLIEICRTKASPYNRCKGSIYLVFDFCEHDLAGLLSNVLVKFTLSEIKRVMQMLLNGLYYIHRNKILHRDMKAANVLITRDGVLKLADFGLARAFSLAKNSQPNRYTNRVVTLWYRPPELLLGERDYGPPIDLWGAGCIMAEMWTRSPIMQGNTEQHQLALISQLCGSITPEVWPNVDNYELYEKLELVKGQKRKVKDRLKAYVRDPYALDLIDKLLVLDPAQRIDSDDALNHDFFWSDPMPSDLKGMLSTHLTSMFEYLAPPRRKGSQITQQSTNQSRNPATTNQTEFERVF
Chain of CDK9/Cyclin Tl (O60563 whole entry partner): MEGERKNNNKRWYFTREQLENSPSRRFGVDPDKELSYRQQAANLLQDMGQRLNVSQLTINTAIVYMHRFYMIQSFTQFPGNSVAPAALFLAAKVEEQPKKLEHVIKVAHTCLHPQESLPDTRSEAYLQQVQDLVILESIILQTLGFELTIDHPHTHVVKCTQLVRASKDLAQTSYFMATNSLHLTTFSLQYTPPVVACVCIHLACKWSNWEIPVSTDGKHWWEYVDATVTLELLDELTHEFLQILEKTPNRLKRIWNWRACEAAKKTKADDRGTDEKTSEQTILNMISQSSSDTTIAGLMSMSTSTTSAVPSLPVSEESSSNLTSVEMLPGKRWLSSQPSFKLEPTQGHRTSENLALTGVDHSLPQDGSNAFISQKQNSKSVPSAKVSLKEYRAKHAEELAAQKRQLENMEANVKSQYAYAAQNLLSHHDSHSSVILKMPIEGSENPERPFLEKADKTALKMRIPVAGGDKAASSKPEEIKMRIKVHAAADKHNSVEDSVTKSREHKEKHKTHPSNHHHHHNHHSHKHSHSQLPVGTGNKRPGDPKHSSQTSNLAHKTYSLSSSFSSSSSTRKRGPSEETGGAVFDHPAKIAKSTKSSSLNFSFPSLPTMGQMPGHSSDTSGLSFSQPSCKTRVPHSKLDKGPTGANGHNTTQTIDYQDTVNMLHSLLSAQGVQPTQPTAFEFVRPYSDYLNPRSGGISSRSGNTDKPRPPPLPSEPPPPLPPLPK

Take `COC(=O)Nc1ccc2c(-c3nc(N[C@H]4CCCNC4)ncc3C(F)(F)F)c[nH]c2c1` [Example T-16]: the concentration for half-maximal inhibition (IC50) in test [1] was over 500 nM; at CDK2/Cyclin El it was over 500 nM; at CDK9/Cyclin Tl, over 500 nM; in test [2], under 50 nM.

Take `O=C1CCN1c1ccc2c(-c3nc(N[C@H]4CCCNC4)ncc3C(F)(F)F)c[nH]c2c1Br` [Example T-18]: the IC50 was over 500 nM in test [1], over 500 nM at CDK2/Cyclin El, over 500 nM at CDK9/Cyclin Tl and under 50 nM in test [2].

On to `COC(=O)Nc1ccc2c(-c3nc(NC4CC5(CNC5)C4)ncc3C(F)(F)F)c[nH]c2c1Br` [Example T-19], for which the 50% inhibitory concentration (IC50) was over 500 nM in test [1], over 500 nM on CDK2/Cyclin El, over 500 nM at CDK9/Cyclin Tl and under 50 nM in test [2].

For the compound `COC(=O)Nc1ccc2c(-c3nc(N[C@H]4CCC[C@H](N)C4)ncc3C(F)(F)F)c[nH]c2c1Br` [Example T-20], the IC50 is over 500 nM in test [1], over 500 nM at CDK2/Cyclin El, over 500 nM on CDK9/Cyclin Tl and 50 to 500 nM in test [2].

With `COC(=O)Nc1ccc2c(-c3nc(N[C@H]4CCC[C@@H](N)C4)ncc3C(F)(F)F)c[nH]c2c1Br` [Example T-21], the IC50 in test [1] was over 500 nM; at CDK2/Cyclin El, over 500 nM; at CDK9/Cyclin Tl it was over 500 nM; in test [2] it was 50 to 500 nM.

As to `COC(=O)Nc1ccc2c(-c3nc(N[C@@H]4CCC[C@H](N)C4)ncc3C(F)(F)F)c[nH]c2c1Br` [Example T-22], the IC50 in test [1] was over 500 nM; at CDK2/Cyclin El, over 500 nM; at CDK9/Cyclin Tl it was over 500 nM; in test [2] it was 50 to 500 nM.

With `COC(=O)Nc1ccc2c(-c3nc(N[C@@H]4CCC[C@@H](N)C4)ncc3C(F)(F)F)c[nH]c2c1Br` [Example T-23], the IC50 in test [1] was over 500 nM; on CDK2/Cyclin El, over 500 nM; at CDK9/Cyclin Tl, over 500 nM; in test [2] it was 50 to 500 nM.

On to `COC(=O)Nc1ccc2c(-c3nc(N[C@H]4[C@@H]5CNC[C@@H]54)ncc3C(F)(F)F)c[nH]c2c1Br` [Example T-24], for which the IC50 in test [1] is over 500 nM; at CDK2/Cyclin El, over 500 nM; at CDK9/Cyclin Tl, over 500 nM; in test [2], under 50 nM.

`COC(=O)Nc1ccc2c(-c3nc(N[C@@H]4[C@@H]5CNC[C@@H]54)ncc3C(F)(F)F)c[nH]c2c1Br` [Example T-25]: the concentration for half-maximal inhibition (IC50) in test [1] was over 500 nM; on CDK2/Cyclin El it was over 500 nM; on CDK9/Cyclin Tl, over 500 nM; in test [2] it was 50 to 500 nM.

Turning to `COC(=O)Nc1ccc2c(-c3nc(NC4C5CCNC54)ncc3C(F)(F)F)c[nH]c2c1Br` (stereo not drawn) [Example T-26], the IC50 was over 500 nM in test [1], over 500 nM at CDK2/Cyclin El, over 500 nM at CDK9/Cyclin Tl and 50 to 500 nM in test [2].

Take `COC(=O)Nc1ccc2c(-c3nc(N[C@H]4CCCNC4)ncc3C(F)(F)F)c[nH]c2c1C#N` [Example T-27]: the IC50 in test [1] is over 500 nM; at CDK2/Cyclin El, over 500 nM; at CDK9/Cyclin Tl, over 500 nM; in test [2], under 50 nM.

For `COC(=O)Nc1ccc2c(-c3nc(NC4CC5CNCC5C4)ncc3C(F)(F)F)c[nH]c2c1Br` (stereo not drawn) [Example T-28], the IC50 in test [1] was over 500 nM; at CDK2/Cyclin El, over 500 nM; on CDK9/Cyclin Tl, over 500 nM; in test [2], 50 to 500 nM.

For `COC(=O)Nc1ccc2c(-c3nc(N[C@H]4CCC[C@@H](O)C4)ncc3C(F)(F)F)c[nH]c2c1Br` [Example T-29], the IC50 (in test [1]; on CDK2/Cyclin El; on CDK9/Cyclin Tl; in test [2]) was over 500 nM each time.

On to `COC(=O)Nc1ccc2c(-c3nc(NC4CC5(CC(N)C5)C4)ncc3C(F)(F)F)c[nH]c2c1Br` (stereo not drawn) [Example T-31], for which the IC50 was over 500 nM in test [1], over 500 nM at CDK2/Cyclin El, over 500 nM at CDK9/Cyclin Tl and under 50 nM in test [2].

Regarding `COC(=O)Nc1ccc2c(-c3nc(N[C@H]4CCC(C)(C)NC4)ncc3C(F)(F)F)c[nH]c2c1C(F)(F)F` [Example T-35], the half-inhibitory concentration (IC50) is over 500 nM in test [1], over 500 nM on CDK2/Cyclin El, over 500 nM on CDK9/Cyclin Tl and under 50 nM in test [2].

On to `CCOC(=O)Nc1ccc2c(-c3nc(N[C@@H]4CNCC(C)(C)C4)ncc3C(F)(F)F)c[nH]c2c1Br` [Example T-43], for which the 50% inhibitory concentration (IC50) was over 500 nM in test [1], over 500 nM at CDK2/Cyclin El, over 500 nM at CDK9/Cyclin Tl and under 50 nM in test [2].

In the case of `CC(C)OC(=O)Nc1ccc2c(-c3nc(N[C@H]4CCCNC4)ncc3C(F)(F)F)c[nH]c2c1Br` [Example T-44], the IC50 in test [1] is over 500 nM; on CDK2/Cyclin El, over 500 nM; at CDK9/Cyclin Tl, over 500 nM; in test [2], under 50 nM.

With `COC(=O)Nc1ccc2c(-c3nc(N[C@H]4CCCNC4)ncc3C(F)(F)F)c[nH]c2c1-c1ccccc1` [Example T-60], the 50% inhibitory concentration (IC50) in test [1] is over 500 nM; at CDK2/Cyclin El it was over 500 nM; at CDK9/Cyclin Tl it was over 500 nM; in test [2], under 50 nM.

With `COC(=O)Nc1ccc2c(-c3nc(N[C@H]4CCCNC4)ncc3C(F)(F)F)c[nH]c2c1S(=O)(=O)C(C)C` [Example T-63], the half-inhibitory concentration (IC50) in test [1] was over 500 nM; on CDK2/Cyclin El, over 500 nM; on CDK9/Cyclin Tl, over 500 nM; in test [2], under 50 nM.

Consider `COC(=O)Nc1ccc2c(-c3nc(N[C@H]4CCC(C)(C)NC4)ncc3C(F)(F)F)c[nH]c2c1S(=O)(=O)C(C)C` [Example T-64], for which the half-inhibitory concentration (IC50) in test [1] is over 500 nM; on CDK2/Cyclin El, over 500 nM; on CDK9/Cyclin Tl, over 500 nM; in test [2], under 50 nM.

For the compound `COC(=O)Nc1ccc2c(-c3nc(N[C@H]4CCCNC4)ncc3C(F)(F)F)c[nH]c2c1[S+]([O-])C(C)C` (stereo partly drawn) [Example T-65], the IC50 in test [1] is over 500 nM; at CDK2/Cyclin El, over 500 nM; on CDK9/Cyclin Tl, over 500 nM; in test [2], under 50 nM.

Take `COC(=O)Nc1ccc2c(-c3nc(N[C@H]4CCCNC4)ncc3C(F)(F)F)c[nH]c2c1SC(C)C` [Example T-66]: the 50% inhibitory concentration (IC50) is over 500 nM in test [1], over 500 nM at CDK2/Cyclin El, over 500 nM at CDK9/Cyclin Tl and under 50 nM in test [2].

`COC(=O)Nc1ccc2c(-c3nc(N[C@H]4CCC[C@@H]4N)ncc3C(F)(F)F)c[nH]c2c1Br` [Example T-67]: the IC50 in test [1] is over 500 nM; on CDK2/Cyclin El, over 500 nM; on CDK9/Cyclin Tl, over 500 nM; in test [2] it was under 50 nM.

Take `COC(=O)Nc1ccc2c(-c3nc(N[C@H]4CCCNC4)ncc3C(F)(F)F)c[nH]c2c1-c1cnn(C)c1` [Example T-68]: the half-maximal inhibitory concentration (IC50) was over 500 nM in test [1], over 500 nM at CDK2/Cyclin El, over 500 nM on CDK9/Cyclin Tl and under 50 nM in test [2].

For `COC(=O)Nc1ccc2c(-c3nc(N[C@H]4CCCNC4)ncc3C(F)(F)F)c[nH]c2c1C(C)C` [Example T-69], the IC50 is over 500 nM in test [1], over 500 nM at CDK2/Cyclin El, over 500 nM on CDK9/Cyclin Tl and under 50 nM in test [2].

For the compound `COC(=O)Nc1ccc2c(-c3nc(N[C@H]4CCCNC4)ncc3Br)c[nH]c2c1Br` [Example T-75], the IC50 in test [1] is over 500 nM; on CDK2/Cyclin El it was over 500 nM; on CDK9/Cyclin Tl, over 500 nM; in test [2], under 50 nM.

In the case of `COC(=O)Nc1ccc2c(-c3nc(N[C@H]4CCC(C)(C)NC4)ncc3C(F)(F)F)c[nH]c2c1Cl` [Example T-80], the IC50 is over 500 nM in test [1], over 500 nM on CDK2/Cyclin El, over 500 nM on CDK9/Cyclin Tl and under 50 nM in test [2].

Turning to `CCOC(=O)Nc1ccc2c(-c3nc(N[C@H]4CCC(C)(C)NC4)ncc3C(F)(F)F)c[nH]c2c1Cl` [Example T-82], the IC50 was over 500 nM in test [1], over 500 nM at CDK2/Cyclin El, over 500 nM on CDK9/Cyclin Tl and under 50 nM in test [2].

`COC(=O)Nc1ccc2c(-c3nc(N[C@H]4CCCNC4)ncc3C(F)(F)F)c[nH]c2c1C1COC1` [Example T-84]: the half-inhibitory concentration (IC50) in test [1] is over 500 nM; at CDK2/Cyclin El it was over 500 nM; at CDK9/Cyclin Tl, over 500 nM; in test [2] it was under 50 nM.

For the compound `COC(=O)Nc1ccc2c(-c3nc(N[C@H]4CCC(C)(C)NC4)ncc3Cl)c[nH]c2c1OCC(F)(F)F` [Example T-85], the IC50 was over 500 nM in test [1], over 500 nM on CDK2/Cyclin El, over 500 nM on CDK9/Cyclin Tl and under 50 nM in test [2].

In the case of `COC(=O)Nc1ccc2c(-c3nc(N[C@H]4CCC(C)(C)NC4)ncc3Cl)c[nH]c2c1CC(F)(F)F` [Example T-86], the 50% inhibitory concentration (IC50) in test [1] was over 500 nM; on CDK2/Cyclin El, over 500 nM; on CDK9/Cyclin Tl, over 500 nM; in test [2], under 50 nM.

On to `COC(=O)Nc1ccc2c(-c3nc(N[C@H]4CCCNC4)ncc3Cl)c[nH]c2c1C(F)(F)F` [Example T-88], for which the IC50 was over 500 nM in test [1], over 500 nM at CDK2/Cyclin El, over 500 nM on CDK9/Cyclin Tl and under 50 nM in test [2].

With `COC(=O)Nc1ccc2c(-c3nc(N[C@H]4CCC(C)(C)NC4)ncc3Cl)c[nH]c2c1OC(F)(F)F` [Example T-96], the IC50 in test [1] was over 500 nM; on CDK2/Cyclin El, over 500 nM; at CDK9/Cyclin Tl it was over 500 nM; in test [2], under 50 nM.
